# Test results: patent US20240166652A1, “MODULATORS OF THE INTEGRATED STRESS PATHWAY” (Calico Life Sciences LLC, priority 2017, published 2024)
# Test system: ATF4 luciferase reporter in HEK293T cells
# Assay: ATF4-Luc assay (ATF4 luciferase reporter, tunicamycin-treated HEK293T cells)
# Assay type: cell-based, human
# Conditions: Homo sapiens, HEK-293T; HEK293T cells carrying the ATF4 luciferase reporter, 1 μg/mL tunicamycin, 7 hours
row,Compound,EC50 [nM]
1,"O=C(COc1ccc(Cl)c(F)c1)NC12CC(NS(=O)(=O)CCc3ccc(F)cc3)(C1)C2 [Compound 480, 2-(4-chloro-3-fluorophenoxy)-N-(3-{[2-(4-fluorophenyl)ethanesulfonyl]amino}bicyclo[1.1.1]pentan-1-yl)acetamide]",> 2000
2,"COc1cc(OCC(=O)NC23CCC(NC(=O)COc4ccc(Cl)c(F)c4)(CC2)C[C@@H]3O)ccc1Cl [Compound 528, 2-(4-chloro-3-fluorophenoxy)-N-{(3S)-4-[2-(4-chloro-3-methoxyphenoxy)acetamido]-3-hydroxybicyclo[2.2.2]octan-1-yl}acetamide]",< 10
3,"Cc1cc(F)ncc1OCC(=O)NC12CC(NC(=O)COc3ccc(Cl)c(F)c3)(C1)C2 [Compound 247, 2-(4-chloro-3-fluorophenoxy)-N-(3-{2-[(6-fluoro-4-methylpyridin-3-yl)oxy]acetamido}bicyclo[1.1.1]pentan-1-yl)acetamide]",50 to 250
4,"CO[C@@H]1C[C@]2(NC(=O)COc3ccc(Cl)c(F)c3)CC[C@@]1(NC(=O)COc1ccc(Cl)c(F)c1)CC2O (mixture of isomers) [Compound 554, rac-N,N′-[(1R,4R,5R)-2-hydroxy-5-methoxybicyclo[2.2.2]octane-1,4-diyl]bis[2-(4-chloro-3-fluorophenoxy)acetamide]]",< 10
5,"Cn1nc(C(F)(F)F)cc1OCC(=O)NC12CC(NC(=O)COc3ccc(Cl)c(F)c3)(C1)C2 [Compound 369, 2-(4-chloro-3-fluorophenoxy)-N-[3-(2-{[1-methyl-3-(trifluoromethyl)-1H-pyrazol-5-yl]oxy}acetamido)bicyclo[1.1.1]pentan-1-yl]acetamide]",> 2000
6,"Cc1ccc(CCOCC(=O)NC23CC(NC(=O)COc4ccc(Cl)c(Cl)c4)(C2)C3)cc1 [Compound 154, 2-(3,4-dichlorophenoxy)-N-(3-{2-[2-(4-methylphenyl)ethoxy]acetamido}-bicyclo[1.1.1]pentan-1-yl)acetamide]",250 to 500
7,"Cc1ccccc1CS(=O)(=O)NC12CC(NC(=O)COc3ccc(Cl)c(F)c3)(C1)C2 [Compound 482, 2-(4-chloro-3-fluorophenoxy)-N-(3-{[(2-methylphenyl)methanesulfonyl]amino}bicyclo[1.1.1]pentan-1-yl)acetamide]",> 2000
8,"Cc1cc(F)ccc1OCC(=O)NC12CCC(NC(=O)COc3ccc(Cl)c(F)c3)(CC1)[C@@H](O)C2 [Compound 755, 2-(4-chloro-3-fluorophenoxy)-N-{(2S)-4-[2-(4-fluoro-2-methylphenoxy)acetamido]-2-hydroxybicyclo[2.2.2]octan-1-yl}acetamide]",< 10
9,"O=C(COc1ccc(Cl)c(F)c1)NC12CCC(NC(=O)COc3ccc(Cl)nn3)(CC1)[C@@H](O)C2 [Compound 518, 2-(4-chloro-3-fluorophenoxy)-N-[(3S)-4-{2-[(6-chloropyridazin-3-yl)oxy]acetamido}-3-hydroxybicyclo[2.2.2]octan-1-yl]acetamide]",10 to 50
10,"O=C(COc1ccc(C(F)(F)F)cc1)NC12CCC(NC(=O)COc3ccc(C(F)(F)F)cc3)(CC1)[C@@H](O)C2 [Compound 536, N,N′-[(2S)-2-hydroxybicyclo[2.2.2]octane-1,4-diyl]bis{2-[4-(trifluoromethyl)phenoxy]acetamide}]",< 10
11,"O=C(COc1ccc(Cl)c(F)c1)NC12CC(NCC(=O)c3ccc(Cl)c(F)c3)(C1)C2 [Compound 291, 2-(4-chloro-3-fluorophenoxy)-N-(3-{[2-(4-chloro-3-fluorophenyl)-2-oxoethyl]amino}bicyclo[1.1.1]pentan-1-yl)acetamide]",250 to 500
12,"O=C(COc1ccc(Cl)c(F)c1)NC12CC(NC(=O)COc3ccc(C(F)(F)F)cn3)(C1)C2 [Compound 214, 2-(4-chloro-3-fluorophenoxy)-N-[3-(2-{[5-(trifluoromethyl)pyridin-2-yl]oxy}acetamido)bicyclo[1.1.1]pentan-1-yl]acetamide]",50 to 250
13,"O=C(COc1ccc(Cl)c(F)c1)NC12CC(NC(=O)OCc3cccc(Cl)c3)(C1)C2 [Compound 164, (3-chlorophenyl)methyl {3-[2-(4-chloro-3-fluorophenoxy)-acetamido]bicyclo[1.1.1]pentan-1-yl}carbamate]",500 to 2000
14,"Cc1cc(OCC(=O)NC23CCC(NC(=O)COc4ccc(Cl)c(F)c4)(CC2)[C@@H](O)C3)cc(C)c1C [Compound 469, 2-(4-chloro-3-fluorophenoxy)-N-{(2S)-2-hydroxy-4-[2-(3,4,5-trimethylphenoxy)acetamido]bicyclo[2.2.2]octan-1-yl}acetamide]",> 2000
15,"O=C(COc1ccc(Cl)cc1)NC12CCC(NC(=O)COc3ccc(Cl)cc3)(CC1)CC2 [Compound 744, N,N′-(bicyclo[2.2.2]octane-1,4-diyl)bis[2-(4-chlorophenoxy)acetamide]]",< 10
16,"CN(CC(=O)NC12CC(NC(=O)COc3ccc(Cl)c(Cl)c3)(C1)C2)c1ccc(Cl)cc1 [Compound 200, N^2-(4-chlorophenyl)-N-{3-[2-(3,4-dichlorophenoxy)acetamido]-bicyclo[1.1.1]pentan-1-yl}-N^2-methylglycinamide]",> 2000

row,Compound,EC50 [nM]
1,"CC(C)(C)OC(=O)CN(CC(=O)NC12CC(NC(=O)COc3ccc(Cl)c(F)c3)(C1)C2)c1ccc(Cl)cc1 [Compound 685, tert-butyl {[2-({3-[2-(4-chloro-3-fluorophenoxy)acetamido]bicyclo[1.1.1]pentan-1-yl}amino)-2-oxoethyl](4-chlorophenyl)amino}acetate]",> 2000
2,"O=C(CC(=O)c1ccc(Cl)cc1)NC12CCC(NC(=O)COc3ccc(Cl)c(F)c3)(CC1)[C@@H](O)C2 [Compound 807, N-{(3S)-4-[2-(4-chloro-3-fluorophenoxy)acetamido]-3-hydroxybicyclo[2.2.2]octan-1-yl}-3-(4-chlorophenyl)-3-oxopropanamide]",10 to 50
3,"CCOc1ccc(OCC(=O)NC23CCC(NC(=O)COc4ccc(Cl)c(F)c4)(CC2)C[C@@H]3O)cc1 [Compound 508, 2-(4-chloro-3-fluorophenoxy)-N-{(3S)-4-[2-(4-ethoxyphenoxy)acetamido]-3-hydroxybicyclo[2.2.2]octan-1-yl}acetamide]",10 to 50
4,"O=C(COc1ccc(Cl)c(F)c1)NC12CCC(NC(=O)Cc3ccncc3)(CC1)C(O)C2 (centres unmarked) [Compound 328, 2-(4-chloro-3-fluorophenoxy)-N-{3-hydroxy-4-[2-(pyridin-4-yl)acetamido]bicyclo[2.2.2]octan-1-yl}acetamide]",> 2000
5,"O=C(COc1ccc(Cl)cc1)NC12CCC(NC(=O)COc3ccc(F)c(F)c3)(CC1)CC2 [Compound 740, 2-(4-chlorophenoxy)-N-{4-[2-(3,4-difluorophenoxy)acetamido]bicyclo[2.2.2]octan-1-yl}acetamide]",10 to 50
6,"COc1ncc(OCC(=O)NC23CCC(NC(=O)COc4ccc(Cl)c(F)c4)(CC2)C(=O)N3)cn1 [Compound 690, 2-(4-chloro-3-fluorophenoxy)-N-(1-{2-[(2-methoxypyrimidin-5-yl)oxy]acetamido}-3-oxo-2-azabicyclo[2.2.2]octan-4-yl)acetamide]",250 to 500
7,"O=C(COc1ccc(Cl)c(F)c1)N[C@@H]1C[C@@H]2C[C@H]1C[C@H]2NC(=O)COc1ccc(Cl)c(F)c1 (racemic) [Compound 628, rac-N,N′-[(1R,2S,4R,5S)-bicyclo[2.2.1]heptane-2,5-diyl]bis[2-(4-chloro-3-fluorophenoxy)acetamide]]",< 10
8,"O=C(COc1ccc(F)c(F)c1)NC12CC(NC(=O)COc3ccc(Cl)c(F)c3)(C1)C2 [Compound 183, 2-(4-chloro-3-fluorophenoxy)-N-{3-[2-(3,4-difluorophenoxy)acetamido]-bicyclo[1.1.1]pentan-1-yl}acetamide]",< 10
9,"O=C(COc1ccc(Cl)c(F)c1)NC12CCC(OCc3ccc(Cl)cc3)(CC1)CC2O (centres unmarked) [Compound 565, 2-(4-chloro-3-fluorophenoxy)-N-{4-[(4-chlorophenyl)methoxy]-2-hydroxybicyclo[2.2.2]octan-1-yl}acetamide]",500 to 2000
10,"COC(=O)c1ccc(OCC(=O)NC23CC(NC(=O)COc4ccc(Cl)c(F)c4)(C2)C3)cn1 [Compound 264, methyl 5-[2-({3-[2-(4-chloro-3-fluorophenoxy)acetamido]bicyclo-[1.1.1]pentan-1-yl}amino)-2-oxoethoxy]pyridine-2-carboxylate]",500 to 2000
11,"O=C(COc1cccc(OC(F)F)c1)NC12CC(NC(=O)COc3ccc(Cl)c(F)c3)(C1)C2 [Compound 396, 2-(4-chloro-3-fluorophenoxy)-N-(3-{2-[3-(difluoromethoxy)phenoxy]acetamido}bicyclo[1.1.1]pentan-1-yl)acetamide]",10 to 50
12,"O=C(COc1ccc(C(F)(F)F)c(F)c1)NC12CCC(NC(=O)COc3ccc(C(F)(F)F)c(F)c3)(CC1)[C@@H](O)C2 [Compound 821, N,N′-[(2S)-2-hydroxybicyclo[2.2.2]octane-1,4-diyl]bis{2-[3-fluoro-4-(trifluoromethyl)phenoxy]acetamide}]",< 10
13,"O=C(COc1ccc(Cl)c(F)c1)NC12CCC(NCCOc3ccc(Cl)c(Cl)c3)(CC1)C(O)C2 (centres unmarked) [Compound 335, 2-(4-chloro-3-fluorophenoxy)-N-(4-{[2-(3,4-dichlorophenoxy)ethyl]amino}-3-hydroxybicyclo[2.2.2]octan-1-yl)acetamide]",< 10
14,"Cn1cc(OCC(=O)NC23CCC(NC(=O)COc4ccc(Cl)c(F)c4)(CC2)C[C@@H]3O)cn1 [Compound 658, 2-(4-chloro-3-fluorophenoxy)-N-[(3S)-3-hydroxy-4-{2-[(1-methyl-1H-pyrazol-4-yl)oxy]acetamido}bicyclo[2.2.2]octan-1-yl]acetamide]",50 to 250
15,"O=C(COCc1cccc(C(=O)O)c1)NC12CC(NC(=O)COc3ccc(Cl)c(F)c3)(C1)C2 [Compound 212, 3-{[2-({3-[2-(4-chloro-3-fluorophenoxy)acetamido]bicyclo[1.1.1]pentan-1-yl}amino)-2-oxoethoxy]methyl}benzoic Acid]",> 2000
16,"O=C(COc1ccc(Cl)c(F)c1)NC12CCC(N[C@@H](CCOc3ccc(Cl)cc3)C(=O)O)(CC1)C[C@@H]2O (single isomer, unassigned) [Compound 694]",250 to 500
